Measured values taken from paper PMC6680637, “In Silico Repositioning of Cannabigerol as a Novel Inhibitor of the Enoyl Acyl Carrier Protein (ACP) Reductase (InhA)” (Molecules, 2019).

Molecular target: T1, Enoyl acyl carrier protein (ACP) reductase (InhA) (Mycobacterium tuberculosis, UniProt P9WGR1)
T1 construct: wild type InhA
Test: enzyme kinetic assay, NADH oxidation at […] nm with trans-2-dodecenoyl-CoA substrate
Type: biochemical

T1 sequence (P9WGR1 whole entry, looked up): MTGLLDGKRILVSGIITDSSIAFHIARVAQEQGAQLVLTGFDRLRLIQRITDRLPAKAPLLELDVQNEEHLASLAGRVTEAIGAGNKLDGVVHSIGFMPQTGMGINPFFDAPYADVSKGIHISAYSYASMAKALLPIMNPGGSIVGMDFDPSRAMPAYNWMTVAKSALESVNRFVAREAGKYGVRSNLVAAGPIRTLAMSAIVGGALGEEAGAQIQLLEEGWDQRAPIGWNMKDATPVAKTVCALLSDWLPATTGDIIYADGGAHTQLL

Q: Which IC50 does the source give for `CCCCCc1cc(O)c(C/C=C(\C)CCC=C(C)C)c(O)c1` [CBG, Cannabigerol] here?
A: The IC50 was 5.2 ± 0.1 µM.
